# Results taken from patent publication US20040167164A1, “Compositions and methods for treating particular chemical addictions and mental illnesses” (priority 1998, published 2004).
# “And” between values parts separate entries of the source, which are not always exact repeats. Identical values can stand only once. “Also recorded” adds a separate entry of the source.
# How the values were obtained:
# [1] = test system: alcoholism; assay: Treatment of alcoholic patients; type: in vivo, human; conditions: follow-up 2 to 3 years
# [2] = test system: homovanilic acid (HVA), a dopamine metabolite; assay: Urinary dopamine metabolites during Haloperidol administration; type: in vivo, human; conditions: for dopamine metabolites (HVA) in urine: bipolar, manic and paranoid schizophrenic patients
# Method: While studying human subjects, diagnosed with bipolar illness, the effects of administering Haloperidol on the metabolites of the neurotransmitter dopamine (DA) were analyzed.
# The urinary studies were done for a period of 6 weeks in eight patients chosen for the study (three manic patients and five schizophrenics of the paranoid type).
# [3] = test system: heroin addiction; assay: Case reports, heroin addiction
# [4] = test system: addiction to heroin
# Method: (§1) Sixteen patients, randomly selected, addicted to heroin, cocaine, or cocaine and alcohol, were assigned to 3 different treatment groups, as follows:
# (§2) a) A group of 6 patients, 3 of them addicted to heroin, and another 3 addicted to cocaine plus alcohol, were treated with AMPT alone.
# (§3) b) Another group of 6 patients, 3 addicted to heroin and another 3 to cocaine plus alcohol, were treated with Haloperidol alone.
# (§4) c) Another group of 4 patients, 2 addicted to heroin and another 2 addicted to cocaine and alcohol, were treated with placebo from the first day of admission.
# (§5) The treatment protocol was as follows:
# (§6) 2) All patients received the same proper amount of the alkalinizer Polycitra to produce a urinary pH around 7.8.
# (§7) 4) All patients started treatment immediately after they arrived before they could develop any signs of withdrawal.
# (§8) 5) Because of the difficulty to fulfill the above requirement of having consumed drugs on the same day of admission, all patients could not be treated simultaneously. This requirement was instated to maintain similarity with many other patients in our general program, where patients are started on treatment immediately after they arrive, even if they arrive immediately after consuming large amounts of the addicting drug(s).
# [5] = test system: tobacco addiction (nicotine); assay: Treatment of smokers (nicotine dependence); set-up: species or system human; conditions: in vivo
# Method: Furthermore, the present inventor utilized the combination of Haloperidol and AMPT by administering small doses of Haloperidol, 2 mg, (6 mgs total per day) for a healthy human, weighing 70 kg, simultaneously with the initiation of treatment with AMPT.
# Generally, the administration of Haloperidol was discontinued after 7-10 days, while AMPT was administered for a period of at least three months in doses of 250 mg b.i.d.
# [6] = test system: morphine addicted monkeys; assay: Craving and abstinence syndrome in narcotic-addicted monkeys; type: in vivo; conditions: bar-presses; withdrawal symptoms, aggressive behavior
# From the text: Equally the same, at present it is well known that all addictions have in common a biochemical factor—the alteration of the dopamine synthesis and its transporters.
# Based on the above, we further hypothesized that the combination of both agents would render better results than any one of them alone.
# [7] = test system: rats exposed to cigarette extract and smoke; assay: Rats given cigarette extract water and cigarette smoke, choice test; type: in vivo; conditions: after 18 hours
# From the text: A cigarette extract was obtained by burning cigarettes and collecting the tar, nicotine, and other products of cigarette combustion by a perforated plastic tube tied to the exhaust of a miniature vacuum cleaner. The air and smoke was passed through a container of water in which the cigarette extract was deposited. This drinking water was subsequently given to the animals. In addition to bottle feeding rats with the cigarette extract water (equivalent to 6 cigarettes per rat per day), the rats were also exposed to cigarette smoke. The rats were exposed for 2 hours at 8 hour intervals, for a total of 6 hours a day, to cigarette smoke in a sealed chamber. After a period of 4 months, 24 animals died of different causes, pneumonia among them, and 66 survived. The remaining 66 animals were divided in two groups: 35 were treated with AMPT orally, and 31 were kept as controls. The urine was alkalinized in both groups with Polycitra to a pH of about 7.8.
# At the end of 4 months, all rats were given the choice to continue drinking the same cigarette extract contaminated water or drink pure drinking water in equal amounts. All animals were given the choice to be in the cigarette smoke filled chamber or to use clean air quarters. […]
# [8] = type: in vivo; conditions: with Polycitra orally, urine pH about 7.8 to 8
# From the text: Once known that AMPT produced crystalluria, which prevented its use in humans, the present inventor conducted research to find a solution to the crystalluria problem. Specifically, this research was directed to provide a composition containing AMPT that could be used in the treatment of patients suffering from different conditions and without the formation of AMPT crystalluria. This was accomplished with extensive research in animals, such as mice, rats, mongrel and beagle dogs, to which AMPT with a urine alkalinizer was administered. The alkalinization was obtained with Polycitra, administered orally, and in an amount to obtain a urine pH of about 7.8 to 8.
# [9] = test system: rats made dependent on alcohol; assay: Rats made dependent on alcohol (25% alcohol solution); type: in vivo; conditions: AMPT 300 mg per kg of body weight
# Method: Subsequently, it was observed that rats made dependent on alcohol (25% alcohol solution) would prefer again to drink plain water, instead of the alcohol solution upon which they had been made dependent, when treated with AMPT (300 mg per kg of body weight), with their preference being manifested after 2-4 days of treatment.
# [10] = test system: schizophrenia and mania
# [11] = test system: craving and abstinence symptoms; assay: Unintentional simple blind study with defective AMPT capsules; type: in vivo, human; conditions: capsules containing less than half the intended amount of AMPT
# From the text: Moreover, it was confirmed that the effective agent in abolishing craving and abstinence symptoms in humans was the action of AMPT and none of the other agents given—Akineton or Polycitra—when in our first studies in humans, unknowingly we administered to patients capsules in which the amount of AMPT contained was less than half the amount of AMPT they should have had. The excessive amount of filler (calcium stearate) put in the capsulating machine in order to render the blended mixture more fluid and less compact, given the heavy consistency of the AMPT that was otherwise difficult for incorporation into capsules, was so excessive that it decreased the amount of AMPT in the capsules to less than half of what it should have been.
# Once we knew the cause of the failure, we started to administer the proper dosage of AMPT. The patients then responded. […] The number of patients treated with different addictions, convinced us that the association of AMPT with Haloperidol produces very outstanding and beneficial results.
# [12] = test system: patients with dual disorder; assay: Length of hospitalization of treated patients (Table I); conditions: human, in vivo
# [13] = test system: addiction to cocaine plus alcohol; assay: 16 patient study, patients addicted to cocaine plus alcohol; type: in vivo, human; conditions: three patients
# Method: as §1, §2, §3, §4, §5, §6, §7, §8
smiles,measurement,setting,value
O=C1CC[C@@]2(O)[C@H]3Cc4ccc(O)c5c4[C@@]2(CCN3CC2CC2)[C@H]1O5 [Naltrexone],relapse into alcohol at follow-up,[1],none
OC(CCN1CCCCC1)(c1ccccc1)C1CC2C=CC1C2 (stereo not shown) [Akineton],dopamine metabolites (HVA) in urine,[2],not related to the increase in dopamine metabolites
"CC(N)(Cc1ccc(O)cc1)C(=O)O (stereo not drawn) [AMPT, alpha-methyl-para-tyrosine]",time to discharge from hospital,"[3]; case reports 1, 2, 16, 17, 18",65 days and 78 days
same,craving and abstinence symptoms,"[3]; case reports 1, 2, 17, 18",no abstinence symptoms appearing
same,relapse to drugs at follow-up,[3]; follow-up 14 months to 1½ years,had not taken any drugs
same,day when patients had no craving or abstinence symptoms,[4]; three patients,sixth day
same,time until craving to smoke is lost,[5],2 to 4 days and 2 to 3 days
same,craving and manifestations of the abstinence syndrome,[6],abolition of craving and withdrawal in all animals; also recorded: abolish the craving for morphine and the manifestations of the abstinence syndrome
same,choice of chamber,[7],totally avoiding the smoke filled compartment
same,choice of drinking water,"[7]; AMPT orally, discontinued two days in advance",chose to continue drinking the pure water
same,"safety (autopsy, macroscopic, microscopic, electron-microscopy)",[8],safety being confirmed by autopsy
same,time until preference for plain water instead of alcohol solution,[9],2 to 4 days
same,time to almost total cessation of the acute symptoms,[10]; Haloperidol 10-15 mg t.i.d. when added,24 to 30 h
same,relapse of symptoms at follow-up on maintenance,"[10]; case reports 8, 10, 11, follow-up 1-2 years",did not have any more phases of mania or depression
same,patient response,[11],failed to respond
same,Average Length of Hospitalization,[12],47 days
same,Longest Hospitalization,[12],97 days
same,Shortest Hospitalization,[12],26 days
same,day when craving for cocaine started to remit,[13],fifth day
same,day when craving for cocaine was totally extinguished,[13],seventh
"O=C(CCCN1CCC(O)(c2ccc(Cl)cc2)CC1)c1ccc(F)cc1 [Haloperidol, 4-[4-(p-chlorophenyl)-4-hydroxy-piperidino]-4′-fluorobutyrophe]",overall conclusion on treatment of addiction,"[4]; 16 patient study, heroin and cocaine plus alcohol",useless
same,severity of withdrawal symptoms compared with no treatment agent,"[4]; human, in vivo",more severe
same,onset of severe manifestations of withdrawal,[4]; three patients,26 to 30 h
same,craving and manifestations of the abstinence syndrome,[6],did not modify the craving
same,clinical symptoms after a month of treatment,"[2]; Haloperidol exclusively, up to 60 mg a day, three paranoid and two manic patients",not totally controlled
same,dopamine metabolites (HVA) in urine,[2],increasing; also recorded: increased gradually and quantitatively in urine
same,time to maximum HVA concentration in urine,[2]; continued Haloperidol administration,3-4 weeks
same,craving for cocaine,[13]; up to sixth day,did not subside
